Reference: US20250236617A1, “BICYCLIC TETRAHYDROTHIAZEPINE DERIVATIVES” (Hoffmann-La Roche Inc., priority 2022, published 2025)

How the values were obtained:
primary human T-cells [1] = experiment: IL2 secretion measurements in CD3-stimulated T-cells; type: cell-based; details: CD3 condition; for Emax IL2 (% activation): 24 hours, 20 μM reference compound A1 = 100%; for EC50: Homo sapiens, T-cell, IL2 secretion after 24 hours, read-out: Tcell IL2 CD3 EC50
Protocol: As readouts for T-cell activation, 1L2 secretion after 24 hours and proliferation after 5 days was measured. Increases in 1L2 secretion and proliferation upon compound treatment were assessed as the % of the maximum of reference compound A1. WO 2016/139181 discloses reference compound A1 as example 70. As a counter screen and to make sure that no unwanted TCR-independent activation was triggered, PBS conditions were run for all compounds.
Expanded primary human T-cells were thawed and cultured in RPMI 1640 (Gibco, #61870-010)+5% human serum (HS, Sigma, #H3667)+1 mM Sodium Pyruvate (Gibco, #11360-039)+50 μM 2-mercaptoethanol (Gibco, #31350-010) and 1× Pen-Strep (Life Technologies, #15140122) medium at density of 2 Mio/ml for 3 hours in 5% CO2, 37° C. and 95% humidity. For coating of plates, […] or PBS++ with CD3 antibody (concentration depending on donor and determined by CD3 titrations) was added 100 μl/well to Poly-D Lysine coated 96-well plates. Plates were sealed and incubated at room temperature for 3 hours on a table-top rocking platform. After incubation, plates were washed once with PBS−− and filled with 40 μl/well culture medium only. Compounds were then added (see next section) to medium only plates. After 3 hours of culturing the T-cells, cells were filtered through a cell strainer (Miltenyi Biotech, #130-041-407), counted again and concentration was adjusted to 1.25 Mio/ml.
Cells were then seeded 80 μl/well to the 40 μl/well including dispensed compounds according to plate layout. By adding cells, compounds were further diluted 1:3, and resulting in 100 k cells/120 μl/well. After 24 hours 40 μl of supernatant was collected carefully from the top while not disturbing the cells and transferred into a round bottom 96 well plate. Collected and frozen supernatant was used for detection of IL2 using the IL-2 Human ProQuantum Immunoassay Kit (Invitrogen) or using the Human IL-2 ELISA Kit (Thermo Fisher).
(§1) Compounds were added in a 5 or 6 pt dose response with the Tecan D300e Digital Dispenser, all conditions 3 times more concentrated than the end-concentration, since cells are added afterwards (80 μl cells to 40 μl prepared medium with treatment). The DR was starting at 20 μM or 10 μM final top concentration and a dilution factor of 3.333. The positive control was the reference compound A1 that was added in a dose response as well, additionally to 3 wells of only 20 μM representing the positive stimulator control. All wells were normalized with DMSO to a final concentration of 0.6% (0.2% end-concentration).
The immunoassay is done following the manufacturer's manual (Invitrogen, #A35603). Additional information: For the immunoassay, MicroAmp™ EnduraPlate™ Optical 384-Well plates are used. Frozen supernatant is thawed and centrifuged for 5 minutes at 1000×g, both steps at 4° C. After centrifugation, required sample amount is taken from the top, and in a separate LightCycler V-bottom plate (working plate) diluted with assay dilution buffer, dilution factor depending on the PBS or CD3 condition but at least 1:3. IL-2 standard and blanks are prepared in the same V-bottom plate, standard with a range of […] (extended version). After preparation, 5 μl of sample dilutions or standard/blanks are transferred to the optical 384-well plate (assay plate) and the 10 μl reaction protocol is being followed. For measurement, the QuantStudio 12K Flex system is used. Raw data is extracted and IL-2 concentrations are calculated with the Thermo Fisher online app (apps.thermofisher.com/apps/proquantum).
ELISA is done following the manufacturer's manual (Thermo Fisher Scientific, #88-7025-88). Additional information: For the ELISA Nunc MaxiSorp 96 well plates are used. Frozen supernatant is thawed and centrifuged for 5 minutes at 1000×g, both steps at 4° C. […]

primary human T-cells [2] = experiment: T-cell proliferation assay (CellTiter-Glo); type: cell-based; details: CD3 condition; for EC50: Homo sapiens, T-cell, 120 h, proliferation after 5 days, CellTiter-Glo, read-out: Tcell Proliferation CD3 EC50; for Emax proliferation (% activation): 5 days, 20 μM reference compound A1 = 100%
Protocol: For coating of plates, PBS++ only or PBS++ with CD3 antibody (concentration depending on donor and determined by CD3 titrations) is added 100 μl/well to Poly-D Lysine coated 96-well plates. Plates are sealed and incubated at room temperature for 3 hours on a table-top rocking platform. After incubation, plates are washed once with PBS−− and filled with 40 μl/well culture medium only. Compounds are then added (see next section) to medium only plates. After 3 hours of culturing the T-cells, cells are filtered through a cell strainer (Miltenyi Biotech, #130-041-407), counted again and concentration is adjusted to 1.25 Mio/ml.
Cells are then seeded 80 μl/well to the 40 μl/well including dispensed compounds according to plate layout. By adding cells, compounds are further diluted 1:3, and resulting in 100 k cells/120 μl/well. After 48 hours 40 μl of supernatant is collected carefully from the top while not disturbing the cells. Cells are assessed for proliferation 5 days later by measuring […] using CellTiterGlo (Promega).
as §1, with “The DR was starting at 20 μM or 10 μM final top concentration and a dilution factor of 3.333.” left out
After 5 days, for detection of ATP which is directly proportional to the number of cells present per well, the CellTiter-Glo® 2.0 Reagent is used. After visual control for toxicity or precipitations of the tested compounds, the plates are equilibrated to room temperature for 45 minutes. CellTiter-Glo® 2.0 Reagent is equilibrated to room temperature as well. After equilibration, an equal amount of CellTiter-Glo reagent is added to the cells (80 μl/well) with an electronic multichannel pipette. Plates are placed on a rocking platform for 15 minutes at room temperature. After incubation, the bottom of the plates is sealed with backing tape. Luminescence is measured with PHERAstar FSX (interval time 0.5 sec, gain 3000, focal height 15 mm) and exported as CSV file for analysis in Genedata screener.
Calculations and Data Reporting CD3 and PBS plates were analysed separately in Genedata Screener using Roche Normalization PCT_POS_CTRL with DMSO set as Neutral Control and 20 μM of the reference compound A1 set as Stimulator Control/100%.
For CD3 conditions EC50 and Emax of the fitted sigmoidal curve were reported. If no curve could be fitted, the EC50 was reported as blank field and the Emax was based on individual data points. […] Compounds which activate unstimulated cells (see IL2 measurements) or compounds which negatively affected viability were flagged.

Compound	Emax IL2 (% activation) (primary human T-cells [1])	EC50 (primary human T-cells [1])	EC50 (primary human T-cells [2])	Emax proliferation (% activation) (primary human T-cells [2])
CC(C)(C)c1cnc(-c2cc3c(cc2F)S(=O)(=O)C[C@H](N)C(=O)N3Cc2ccc(Cl)cc2)nn1 [Example 12, (3R)-3-amino-7-(6-tert-butyl-1,2,4-triazin-3-yl)-5-[(4-chlorophenyl)methyl]-8-fluoro-1,1-dioxo-2,3-dihydro-1λ6,5-benzothiazepin-4-one]	77 % activation	2.78 µM	1.67 µM	
CC(C)(C)c1cc(-c2cc3c(cc2F)S(=O)(=O)C[C@H](N)C(=O)N3Cc2ccc(Cl)cc2)ncn1 [Example 4, (3R)-3-amino-7-(6-tert-butylpyrimidin-4-yl)-5-[(4-chlorophenyl)methyl]-8-fluoro-1,1-dioxo-2,3-dihydro-1λ6,5-benzothiazepin-4-one]	81 % activation	2.24 µM	0.408 µM	
CCN(CC)c1cnnc(-c2cc3c(cc2F)S(=O)(=O)C[C@H](N)C(=O)N3Cc2ccc(Cl)cc2)n1 [Example 15, (3R)-3-amino-5-[(4-chlorophenyl)methyl]-7-[5-(diethylamino)-1,2,4-triazin-3-yl]-8-fluoro-1,1-dioxo-2,3-dihydro-1λ6,5-benzothiazepin-4-one]	79 % activation	1.65 µM	1.71 µM	
N[C@H]1CS(=O)(=O)c2cc(F)c(-c3cc(C(F)(F)F)ccn3)cc2N(Cc2ccc(Cl)cc2)C1=O [Example 8, (3R)-3-amino-5-[(4-chlorophenyl)methyl]-8-fluoro-1,1-dioxo-7-[4-(trifluoromethyl)-2-pyridyl]-2,3-dihydro-1λ6,5-benzothiazepin-4-one]	37 % activation	> 20 µM	1.31 µM	100 % activation
N[C@H]1CS(=O)(=O)c2cc(F)c(-c3cnnc(C4(C(F)(F)F)CC4)c3)cc2N(Cc2ccc(-c3noc(C(F)(F)F)n3)cc2)C1=O [Example 37, (3R)-3-amino-8-fluoro-1,1-dioxo-7-[6-[1-(trifluoromethyl)cyclopropyl]pyridazin-4-yl]-5-[[4-[5-(trifluoromethyl)-1,2,4-oxadiazol-3-yl]phenyl]methyl]-2,3-dihydro-1λ6,5-benzothiazepin-4-one]			0.729 µM	147 % activation
N[C@H]1CS(=O)(=O)c2cc(F)c(-c3cccc(C(F)(F)F)n3)cc2N(Cc2ccc(Cl)cc2)C1=O [Example 9, (3R)-3-amino-5-[(4-chlorophenyl)methyl]-8-fluoro-1,1-dioxo-7-[6-(trifluoromethyl)-2-pyridyl]-2,3-dihydro-1λ6,5-benzothiazepin-4-one]			6.69 µM	76 % activation
COc1cc(-c2cc3c(cc2F)S(=O)(=O)C[C@H](N)C(=O)N3Cc2ccc(Cl)cc2)cnn1 [Example 6, (3R)-3-amino-5-[(4-chlorophenyl)methyl]-8-fluoro-7-(6-methoxypyridazin-4-yl)-1,1-dioxo-2,3-dihydro-1λ6,5-benzothiazepin-4-one]	14 % activation	> 10 µM	1.41 µM	
CC(C)Oc1cc(-c2cc3c(cc2F)S(=O)(=O)C[C@H](N)C(=O)N3Cc2ccc(Cl)cc2)cnn1 [Example 7, (3R)-3-amino-5-[(4-chlorophenyl)methyl]-8-fluoro-7-(6-isopropoxypyridazin-4-yl)-1,1-dioxo-2,3-dihydro-1λ6,5-benzothiazepin-4-one]	49 % activation	3.2 µM	0.172 µM	
CC(C)Oc1ccc(CN2C(=O)[C@@H](N)CS(=O)(=O)c3cc(F)c(-c4nncc(C(C)(C)C)n4)cc32)cc1 [Example 14, (3R)-3-amino-7-(5-tert-butyl-1,2,4-triazin-3-yl)-8-fluoro-5-[(4-isopropoxyphenyl)methyl]-1,1-dioxo-2,3-dihydro-1λ6,5-benzothiazepin-4-one]	73 % activation	1.63 µM	0.254 µM	
CC(C)(C)c1ccnc(-c2cc3c(cc2F)S(=O)(=O)C[C@H](N)C(=O)N3Cc2ccc(Cl)cc2)c1 [Example 1, (3R)-3-amino-7-(4-tert-butyl-2-pyridyl)-5-[(4-chlorophenyl)methyl]-8-fluoro-1,1-dioxo-2,3-dihydro-1λ6,5-benzothiazepin-4-one]	56 % activation	7.38 µM	1.72 µM	
CS(=O)(=O)C1(c2cnnc(-c3cc4c(cc3F)S(=O)(=O)C[C@H](N)C(=O)N4Cc3ccc(Cl)cc3)n2)CC1 [Example 19, (3R)-3-amino-5-[(4-chlorophenyl)methyl]-8-fluoro-7-[5-(1-methylsulfonylcyclopropyl)-1,2,4-triazin-3-yl]-1,1-dioxo-2,3-dihydro-1λ6,5-benzothiazepin-4-one]	45 % activation	5.71 µM	2.09 µM	
Cc1nnc(-c2cc3c(cc2F)S(=O)(=O)C[C@H](N)C(=O)N3Cc2ccc(Cl)cc2)nc1-c1ccccc1 [Example 13, (3R)-3-amino-5-[(4-chlorophenyl)methyl]-8-fluoro-7-(6-methyl-5-phenyl-1,2,4-triazin-3-yl)-1,1-dioxo-2,3-dihydro-1λ6,5-benzothiazepin-4-one]	48 % activation	> 10 µM	3.64 µM	
Cc1ncc(-c2cc3c(cc2F)S(=O)(=O)C[C@H](N)C(=O)N3Cc2ccc(Cl)cc2)cc1C(C)(C)C [Example 16, (3R)-3-amino-7-(5-tert-butyl-6-methyl-3-pyridyl)-5-[(4-chlorophenyl)methyl]-8-fluoro-1,1-dioxo-2,3-dihydro-1λ6,5-benzothiazepin-4-one]	87 % activation	1.11 µM	0.036 µM	
